pIC50: −log10 of the molar value. Where two headings read alike, the source gives them in different places.
Key:
MTAP-deleted cell line = experiment: viability assay for the MTAP-deleted cell line; type: cell-based; details: Homo sapiens, HAP1, viability assay
[1] = test system: HAP1 MTAP-deleted cell line; experiment: SDMA in-cell western assay, HAP1 MTAP-deleted; details: for pIC50 / IC90: Homo sapiens; for Hap1 MTAP intact/deleted ratio: IC50 ratio between HAP1 MTAP-intact and HAP1 MTAP-deleted cell line
Source text: (§1) HAP1 MTAP-intact is a cell line in which endogenous levels of MTAP are expressed, and HAP1 MTAP-deleted is an MTAP-null cell line.

[2] = test system: HAP1 MTAP-intact cell line; experiment: SDMA in-cell western assay, HAP1 MTAP-intact; details: Homo sapiens
Source text: as §1

[3] = HAP1, read-out: Hap1 MTAP deleted IC50, SDMA in-cell western assay, HAP1 MTAP-deleted cell line
[4] = HAP1, read-out: Hap1 MTAP deleted IC90, SDMA in-cell western assay, HAP1 MTAP-deleted cell line
[5] = HAP1, read-out: Hap1 MTAP intact IC50, SDMA in-cell western assay, HAP1 MTAP-intact cell line
[6] = HAP1, read-out: Hap1 MTAP deleted IC50, SDMA in-cell western, HAP1 MTAP-deleted cell line
[7] = HAP1, read-out: Hap1 MTAP deleted IC90, SDMA in-cell western, HAP1 MTAP-deleted cell line
[8] = HAP1, read-out: Hap1 MTAP intact IC50, SDMA in-cell western, HAP1 MTAP-intact cell line

| Compound | pIC50 (MTAP-deleted cell line) | pIC50 [1, 3] | IC90 [1, 4] [nM] | Hap1 MTAP intact/deleted ratio ([1]; SDMA in-cell western assay) | pIC50 [2, 5] | pIC50 [1, 6] | IC90 [1, 7] [nM] | Hap1 MTAP intact/deleted ratio ([1]; SDMA in-cell western) | pIC50 [2, 8] |
| --- | --- | --- | --- | --- | --- | --- | --- | --- | --- |
| C[C@H]1CC[C@H](C2(C(F)(F)F)CC2)N(C(=O)C(=O)Nc2cnc(N)c3cn[nH]c23)C1 (racemic) [Compound 226, N-(4-Amino-1H-pyrazolo[4,3-c]pyridin-7-yl)-2-oxo-2-[rac-(2R,5S)-5-methyl-2-[1-(trifluoromethyl)cyclopropyl]-1-piperidyl]acetamide] | 6.00 to 7.00 | 7.30 to 8.30 | > 125 | B (“B” indicates an IC50 ratio greater than or equal to 15 fold but lower than 30 fold) | < 7.30 | – | – | – | – |
| COc1cc([C@H]2CC[C@H](C)CN2C(=O)C(=O)Nc2cnc(N)c3cn[nH]c23)cc(C)n1 [Compound 219, N-(4-Amino-1H-pyrazolo[4,3-c]pyridin-7-yl)-2-oxo-2-[(2R,5S)-2-(2-methoxy-6-methyl-4-pyridyl)-5-methyl-1-piperidyl]acetamide] | > 7.00 | > 8.30 | < 75 | A (“A” indicates an IC50 ratio greater than or equal to 30 fold) | < 7.30 | – | – | – | – |
| C[C@H]1CC[C@H](c2ccc3ccc(C4CCN(C)CC4)nc3c2)N(C(=O)C(=O)Nc2ccn3ccnc3c2)C1 [Compound 170, N-(imidazo[1,2-a]pyridin-7-yl)-2-((2R,5S)-5-methyl-2-(2-(1-methylpiperidin-4-yl)quinolin-7-yl)piperidin-1-yl)-2-oxoacetamide] | > 7.00 | – | – | – | – | 7.30 to 8.30 | > 125 | A (“A” indicates an IC50 ratio greater than or equal to 30 fold) | < 7.30 |
| Nc1ncc(NC(=O)C(=O)N2[C@@H](c3ccccc3)CCC[C@H]2C(F)(F)F)c2[nH]ncc12 (racemic) [Compound 245, N-(4-Amino-2H-pyrazolo[4,3-c]pyridin-7-yl)-2-oxo-2-[rac-(2R,6S)-2-phenyl-6-(trifluoromethyl)-1-piperidyl]acetamide] | > 7.00 | > 8.30 | < 75 | A (“A” indicates an IC50 ratio greater than or equal to 30 fold) | < 7.30 | – | – | – | – |
| C[C@H]1CC[C@H](c2ccc3cc(Cl)cnc3c2)N(C(=O)C(=O)Nc2cnc(N)c3cn[nH]c23)C1 (racemic) [Compound 264, N-(4-Amino-1H-pyrazolo[4,3-c]pyridin-7-yl)-2-oxo-2-[rac-(2R,5S)-2-(3-chloro-7-quinolyl)-5-methyl-1-piperidyl]acetamide] | > 7.00 | > 8.30 | < 75 | B (“B” indicates an IC50 ratio greater than or equal to 15 fold but lower than 30 fold) | 7.30 to 8.30 | – | – | – | – |
| C[C@@H]1CC[C@@H](c2ccc3cnccc3c2)N(C(=O)C(=O)Nc2cnc(N)c3cn[nH]c23)C1 (racemic) [Compound 22, rac-N-(4-amino-1H-pyrazolo[4,3-c]pyridin-7-yl)-2-((2R,5S)-2-(isoquinolin-6-yl)-5-methylpiperidin-1-yl)-2-oxoacetamide] | > 7.00 | – | – | – | – | > 8.30 | < 75 | C (“C” indicates an IC50 ratio of less than 15 fold) | 7.30 to 8.30 |
| C[C@@H]1CC[C@H](c2ccnn2C)N(C(=O)C(=O)Nc2cnc(N)c3cn[nH]c23)C1 (stereo in doubt) [Compound 272, N-(4-Amino-1H-pyrazolo[4,3-c]pyridin-7-yl)-2-oxo-2-[rac-(2R,5R)-5-methyl-2-(2-methylpyrazol-3-yl)-1-piperidyl]acetamide] | 6.00 to 7.00 | 7.30 to 8.30 | > 125 | B (“B” indicates an IC50 ratio greater than or equal to 15 fold but lower than 30 fold) | < 7.30 | – | – | – | – |
| CO[C@@H]1C[C@@H](c2ccc(F)cc2)N(C(=O)C(=O)Nc2cnc(N)c3cn[nH]c23)C[C@@H]1C (single isomer, unassigned) [Compound 7] | > 7.00 | – | – | – | – | > 8.30 | < 75 | B (“B” indicates an IC50 ratio greater than or equal to 15 fold but lower than 30 fold) | 7.30 to 8.30 |
| CC[C@@H]1CC[C@@H](CC)N(C(=O)C(=O)Nc2cnc(N)c3cn[nH]c23)C1 (racemic) [Compound 233] | > 7.00 | > 8.30 | < 75 | B (“B” indicates an IC50 ratio greater than or equal to 15 fold but lower than 30 fold) | < 7.30 | – | – | – | – |
| C[C@H]1CC[C@H](c2ccc3cn([C@@H]4CCN(C)C[C@H]4C)nc3c2)N(C(=O)C(=O)Nc2cncc3cn[nH]c23)C1 (single isomer, unassigned) [Compound 159] | > 7.00 | – | – | – | – | > 8.30 | < 75 | B (“B” indicates an IC50 ratio greater than or equal to 15 fold but lower than 30 fold) | < 7.30 |
| C[C@H]1CC[C@H](c2ccc3ncccc3c2)N(C(=O)C(=O)Nc2cnc(N)c3cn[nH]c23)C1 [Compound 83, N-(4-amino-1H-pyrazolo[4,3-c]pyridin-7-yl)-2-((2R,5S)-5-methyl-2-(quinolin-6-yl)piperidin-1-yl)-2-oxoacetamide] | > 7.00 | – | – | – | – | > 8.30 | < 75 | B (“B” indicates an IC50 ratio greater than or equal to 15 fold but lower than 30 fold) | 7.30 to 8.30 |
| C[C@H]1CC[C@H](c2ccc(F)c(Cl)c2)N(C(=O)C(=O)Nc2cnc(N)c3cn[nH]c23)C1 (racemic) [Compound 184, N-(4-amino-1H-pyrazolo[4,3-c]pyridin-7-yl)-2-(rac-(2S,5R)-2-(3-chloro-4-fluorophenyl)-5-methylpiperidin-1-yl)-2-oxoacetamide] | > 7.00 | – | – | – | – | > 8.30 | < 75 | A (“A” indicates an IC50 ratio greater than or equal to 30 fold) | < 7.30 |
| C[C@H]1CC[C@H](c2ccccc2)N(C(=O)C(=O)Nc2cnc(N)c3c2OCC3)C1 [Compound 214] | 6.00 to 7.00 | 7.30 to 8.30 | > 125 | B (“B” indicates an IC50 ratio greater than or equal to 15 fold but lower than 30 fold) | < 7.30 | – | – | – | – |
| C[C@H]1CC[C@H](c2ccc3sc(CC(C)(C)N(C)C)nc3c2)N(C(=O)C(=O)Nc2cncc3cn[nH]c23)C1 [Compound 122, 2-((2R,5S)-2-(2-(2-(dimethylamino)-2-methylpropyl)benzo[d]thiazol-5-yl)-5-methylpiperidin-1-yl)-2-oxo-N-(1H-pyrazolo[4,3-c]pyridin-7-yl)acetamide] | > 7.00 | – | – | – | – | > 8.30 | < 75 | A (“A” indicates an IC50 ratio greater than or equal to 30 fold) | < 7.30 |
| C[C@H]1CC[C@H](c2cccc(F)c2)N(C(=O)C(=O)Nc2cnc(N)c3cn[nH]c23)C1 (racemic) [Compound 198, N-(4-Amino-1H-pyrazolo[4,3-c]pyridin-7-yl)-2-oxo-2-[rac-(2R,5S)-2-(3-fluorophenyl)-5-methyl-1-piperidyl]acetamide] | > 7.00 | > 8.30 | < 75 | B (“B” indicates an IC50 ratio greater than or equal to 15 fold but lower than 30 fold) | 7.30 to 8.30 | – | – | – | – |
| C[C@H]1CC[C@H](c2ccc3sc(C4CCN(C)CC4)nc3c2)N(C(=O)C(=O)Nc2cnc(N)c3cnccc23)C1 [Compound 11, N-(1-amino-2,7-naphthyridin-4-yl)-2-((2R,5S)-5-methyl-2-(2-(1-methylpiperidin-4-yl)benzo[d]thiazol-5-yl)piperidin-1-yl)-2-oxoacetamide] | > 7.00 | – | – | – | – | > 8.30 | < 75 | C (“C” indicates an IC50 ratio of less than 15 fold) | 7.30 to 8.30 |
| COc1cc([C@H]2CC[C@H](C)CN2C(=O)C(=O)Nc2cnc(N)c3cn[nH]c23)ccn1 [Compound 145, N-(4-amino-1H-pyrazolo[4,3-c]pyridin-7-yl)-2-oxo-2-[(2R,5S)-2-(2-methoxy-4-pyridyl)-5-methyl-1-piperidyl]acetamide] | > 7.00 | – | – | – | – | > 8.30 | < 75 | B (“B” indicates an IC50 ratio greater than or equal to 15 fold but lower than 30 fold) | 7.30 to 8.30 |
| C[C@H]1CC[C@H](c2ccc3sc(C4CCC(N(C)C)CC4)nc3c2)N(C(=O)C(=O)Nc2cnc(N)c3cn[nH]c23)C1 (mixture of isomers) [Compound 212, N-(4-Amino-1H-pyrazolo[4,3-c]pyridin-7-yl)-2-oxo-2-[rac-(2R,5S)-2-[2-[4-(dimethylamino)cyclohexyl]-1,3-benzothiazol-5-yl]-5-methyl-1-piperidyl]acetamide] | > 7.00 | > 8.30 | < 75 | C (“C” indicates an IC50 ratio of less than 15 fold) | 7.30 to 8.30 | – | – | – | – |
| C[C@H]1CC[C@H](c2ccc3sc(C4CN(C)C4)nc3c2)N(C(=O)C(=O)Nc2cncc3cn[nH]c23)C1 [Compound 62, 2-((2R,5S)-5-methyl-2-(2-(1-methylazetidin-3-yl)benzo[d]thiazol-5-yl)piperidin-1-yl)-2-oxo-N-(1H-pyrazolo[4,3-c]pyridin-7-yl)acetamide] | > 7.00 | – | – | – | – | > 8.30 | < 75 | B (“B” indicates an IC50 ratio greater than or equal to 15 fold but lower than 30 fold) | 7.30 to 8.30 |
